Assays:
[1] = system: MDA-MB-231, human breast cancer cells; experiment: Proliferation assay MDA-MB-231 (crystal violet, 4 days); type: cell-based; settings: Homo sapiens, MDA-MB-231, 96 h, MDA-MB-231 cells, median, read-out: Prolif-MDA MB-231, IC50-[mol/l] (median)
Procedure, shortened: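 Crystal violet proliferation read-out after 4 days of compound exposure (0.01-10 µmol/L; solvent 0.1% DMSO). Extinction at 595 nm, set between zero-point (0%) and vehicle (100%), fitted with 4 parameters to give IC50.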

[2] = target: T1, CYCLIN K (nuclear staining in CAL-120 cells) (Homo sapiens, UniProt O75909); experiment: CYCLIN K nuclear protein level: immunofluorescence high content analysis (CAL-120); type: cell-based; settings: 24 h, 50% reduction of nuclear CCNK staining intensity, median, read-out: CYCLIN K degradation IF, DC50-[mol/l] (median)
T1 construct: endogenous in cells; host or cells: CAL-120 human breast cancer cells (DSMZ ACC 459)
Procedure, shortened: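 Readout is automated confocal image analysis of nuclear cyclin K immunofluorescence (Hoechst nuclei) after PFA fixation. Cells were CAL-120, exposed to compound dose-response 24 h at 37 °C; values are DC50 for halving nuclear CCNK signal relative to DMSO and control wells.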

T1 sequence (O75909 whole entry): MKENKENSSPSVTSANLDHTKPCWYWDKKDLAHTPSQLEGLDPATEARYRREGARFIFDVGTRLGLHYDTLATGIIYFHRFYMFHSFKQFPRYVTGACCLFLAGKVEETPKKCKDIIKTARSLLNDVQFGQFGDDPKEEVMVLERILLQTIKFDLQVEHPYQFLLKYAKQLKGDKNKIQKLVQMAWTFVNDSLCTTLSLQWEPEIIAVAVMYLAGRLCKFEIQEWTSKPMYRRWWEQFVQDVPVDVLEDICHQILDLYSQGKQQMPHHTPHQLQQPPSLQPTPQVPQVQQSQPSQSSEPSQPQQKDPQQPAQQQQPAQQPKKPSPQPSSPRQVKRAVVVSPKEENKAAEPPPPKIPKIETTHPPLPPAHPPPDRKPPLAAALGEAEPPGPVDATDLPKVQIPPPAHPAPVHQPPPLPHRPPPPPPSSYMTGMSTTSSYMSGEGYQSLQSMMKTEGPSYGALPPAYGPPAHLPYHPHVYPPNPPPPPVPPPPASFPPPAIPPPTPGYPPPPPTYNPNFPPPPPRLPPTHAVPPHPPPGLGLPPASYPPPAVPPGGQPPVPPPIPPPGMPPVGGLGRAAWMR
T1 sequence (Q9NYV4 whole entry partner): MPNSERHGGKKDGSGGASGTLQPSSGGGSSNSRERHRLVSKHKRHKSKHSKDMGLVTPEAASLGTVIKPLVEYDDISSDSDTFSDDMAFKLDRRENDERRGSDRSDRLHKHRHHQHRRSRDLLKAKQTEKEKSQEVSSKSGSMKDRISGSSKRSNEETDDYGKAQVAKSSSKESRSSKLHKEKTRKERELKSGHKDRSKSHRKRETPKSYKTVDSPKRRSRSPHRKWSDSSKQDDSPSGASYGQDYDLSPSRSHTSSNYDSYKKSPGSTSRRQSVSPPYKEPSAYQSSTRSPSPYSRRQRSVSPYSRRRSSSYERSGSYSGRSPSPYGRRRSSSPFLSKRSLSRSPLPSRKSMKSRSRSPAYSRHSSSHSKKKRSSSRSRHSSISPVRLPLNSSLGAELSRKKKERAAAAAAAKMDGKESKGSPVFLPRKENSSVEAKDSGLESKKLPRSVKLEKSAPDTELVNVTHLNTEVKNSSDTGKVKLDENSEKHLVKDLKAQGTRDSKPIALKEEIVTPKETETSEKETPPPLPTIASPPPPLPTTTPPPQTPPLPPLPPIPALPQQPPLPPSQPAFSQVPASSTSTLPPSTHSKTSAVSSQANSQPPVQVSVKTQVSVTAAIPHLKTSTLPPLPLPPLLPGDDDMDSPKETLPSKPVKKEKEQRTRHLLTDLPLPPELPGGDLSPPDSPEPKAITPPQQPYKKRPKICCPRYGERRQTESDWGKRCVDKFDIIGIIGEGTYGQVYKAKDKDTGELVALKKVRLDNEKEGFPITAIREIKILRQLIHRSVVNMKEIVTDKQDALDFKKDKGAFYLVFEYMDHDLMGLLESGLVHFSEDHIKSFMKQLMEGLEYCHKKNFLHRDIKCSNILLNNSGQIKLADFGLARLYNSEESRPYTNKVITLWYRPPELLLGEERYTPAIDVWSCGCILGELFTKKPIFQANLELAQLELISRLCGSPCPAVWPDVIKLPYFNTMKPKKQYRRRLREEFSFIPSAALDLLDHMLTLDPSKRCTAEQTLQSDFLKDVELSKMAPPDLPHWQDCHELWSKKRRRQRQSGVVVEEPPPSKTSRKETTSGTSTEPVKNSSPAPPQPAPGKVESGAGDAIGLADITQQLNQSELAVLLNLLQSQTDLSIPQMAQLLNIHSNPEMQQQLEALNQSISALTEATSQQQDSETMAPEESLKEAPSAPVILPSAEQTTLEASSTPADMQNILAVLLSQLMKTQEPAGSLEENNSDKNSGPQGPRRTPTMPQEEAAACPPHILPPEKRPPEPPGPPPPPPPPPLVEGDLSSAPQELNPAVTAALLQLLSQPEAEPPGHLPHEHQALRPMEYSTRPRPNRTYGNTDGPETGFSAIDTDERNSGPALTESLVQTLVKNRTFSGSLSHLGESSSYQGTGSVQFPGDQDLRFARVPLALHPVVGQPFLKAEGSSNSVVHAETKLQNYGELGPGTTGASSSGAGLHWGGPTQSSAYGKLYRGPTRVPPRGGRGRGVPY

SMILES | IC50 [1] [nM] | DC50 [2] [nM]
COc1ccccc1-c1nnc(CNc2nc(N3CCOCC3)nc3c(Br)cnn23)[nH]1 [Example 61, 8-bromo-N-{[5-(2-methoxyphenyl)-4H-1,2,4-triazol-3-yl]methyl}-2-(morpholin-4-yl)pyrazolo[1,5-a][1,3,5]triazin-4-amine] | 30.8 | 3.59
Cc1cnn2c(NCc3nc4c(F)c(F)ccc4[nH]3)nc(N(C)CC(C)(C)O)nc12 [Example 395, 1-[(4-{[(4,5-difluoro-1H-benzimidazol-2-yl)methyl]amino}-8-methylpyrazolo[1,5-a][1,3,5]triazin-2-yl)(methyl)amino]-2-methylpropan-2-ol] | 34 | 0.884
Cc1cnn2c(NCc3nc4c(F)c(F)ccc4[nH]3)nc(N3CCOCC3)nc12 [Example 392, N-[(4,5-difluoro-1H-benzimidazol-2-yl)methyl]-8-methyl-2-(morpholin-4-yl)pyrazolo[1,5-a][1,3,5]triazin-4-amine] | 11.1 | 0.519
Clc1ccc(-c2nnc(CNc3nc(N4CCOCC4)nc4c(Br)cnn34)[nH]2)cc1 [Example 45, 8-bromo-N-{[5-(4-chlorophenyl)-4H-1,2,4-triazol-3-yl]methyl}-2-(morpholin-4-yl)pyrazolo[1,5-a][1,3,5]triazin-4-amine] | – | 44.4
FC(F)(F)c1cccc(-c2nnc(CNc3nc(N4CCOCC4)nc4c(Br)cnn34)[nH]2)c1 [Example 52, 8-bromo-2-(morpholin-4-yl)-N-({5-[3-(trifluoromethyl)phenyl]-4H-1,2,4-triazol-3-yl}methyl)pyrazolo[1,5-a][1,3,5]triazin-4-amine] | – | 2.83
Fc1ccc2[nH]c(CNc3nc(N4CCOCC4)nc4c(-c5ccnnc5)cnn34)nc2c1F [Example 417, N-[(4,5-difluoro-1H-benzimidazol-2-yl)methyl]-2-(morpholin-4-yl)-8-(pyridazin-4-yl)pyrazolo[1,5-a][1,3,5]triazin-4-amine] | 83.1 | 1.25
N#Cc1cccc(-c2nnc(CNc3nc(N4CCOCC4)nc4c(Br)cnn34)[nH]2)c1 [Example 55, 3-[5-({[8-bromo-2-(morpholin-4-yl)pyrazolo[1,5-a][1,3,5]triazin-4-yl]amino}methyl)-4H-1,2,4-triazol-3-yl]benzonitrile] | – | 0.843
N#Cc1cnn2c(NCc3nc4ccccc4[nH]3)nc(N3CCOCC3)nc12 [Example 43, 4-{[(1H-benzimidazol-2-yl)methyl]amino}-2-(morpholin-4-yl)pyrazolo[1,5-a][1,3,5]triazine-8-carbonitrile] | – | 5.35
Brc1cnn2c(NCc3nnc(-c4ccccc4)[nH]3)nc(N3CCCCC3)nc12 [Example 49, 8-bromo-N-[(5-phenyl-4H-1,2,4-triazol-3-yl)methyl]-2-(piperidin-1-yl)pyrazolo[1,5-a][1,3,5]triazin-4-amine] | – | 5.34
CC1(C)CN(c2nc(NCc3nc4ccccc4[nH]3)n3ncc(Br)c3n2)CCO1 [Example 58, N-[(1H-benzimidazol-2-yl)methyl]-8-bromo-2-(2,2-dimethylmorpholin-4-yl)pyrazolo[1,5-a][1,3,5]triazin-4-amine] | – | 1.66
Brc1cnn2c(NCc3nnc(-c4cccnc4)[nH]3)nc(N3CCOCC3)nc12 [Example 53, 8-bromo-2-(morpholin-4-yl)-N-{[5-(pyridin-3-yl)-4H-1,2,4-triazol-3-yl]methyl}pyrazolo[1,5-a][1,3,5]triazin-4-amine] | – | 9.25
OC[C@@H]1CCCCN1c1nc(NCc2nc3ccccc3[nH]2)n2ncc(Br)c2n1 [Example 59, [(2S)-1-(4-{[(1H-benzimidazol-2-yl)methyl]amino}-8-bromopyrazolo[1,5-a][1,3,5]triazin-2-yl)piperidin-2-yl]methanol] | – | 2.85
CC(C)c1cnn2c(NCc3nnc(-c4ccccc4)[nH]3)nc(N(C)CC(C)(C)O)nc12 [Example 39, 2-methyl-1-{methyl[4-{[(5-phenyl-4H-1,2,4-triazol-3-yl)methyl]amino}-8-(propan-2-yl)pyrazolo[1,5-a][1,3,5]triazin-2-yl]amino}propan-2-ol] | – | 8.13
OC[C@H]1CCCCN1c1nc(NCc2nc3ccccc3[nH]2)n2ncc(Br)c2n1 [Example 60, [(2R)-1-(4-{[(1H-benzimidazol-2-yl)methyl]amino}-8-bromopyrazolo[1,5-a][1,3,5]triazin-2-yl)piperidin-2-yl]methanol] | – | 3.05
C[C@H]1COCCN1c1nc(NCc2nc3ccccc3[nH]2)n2ncc(Br)c2n1 [Example 57, N-[(1H-benzimidazol-2-yl)methyl]-8-bromo-2-[(3S)-3-methylmorpholin-4-yl]pyrazolo[1,5-a][1,3,5]triazin-4-amine] | – | 0.189

Second part, the compound after the results:

IC50 [1] [nM] | DC50 [2] [nM] | SMILES
69.1 | 5.91 | FC(F)Cc1cnn2c(NCc3nc4ccccc4[nH]3)nc(N3CCOCC3)nc12.O=C(O)C(F)(F)F [Example 444, trifluoroacetic acid N-[(1H-benzimidazol-2-yl)methyl]-8-(2,2-difluoroethyl)-2-(morpholin-4-yl)pyrazolo[1,5-a][1,3,5]triazin-4-amine]
4.19 | 0.511 | Fc1ccc2[nH]c(CNc3nc(N4CCOCC4)nc4c(C(F)(F)F)cnn34)nc2c1F [Example 426, N-[(4,5-difluoro-1H-benzimidazol-2-yl)methyl]-2-(morpholin-4-yl)-8-(trifluoromethyl)pyrazolo [1,5-a][1,3,5]triazin-4-amine]
28.4 | 1.74 | CCc1cnn2c(NCc3nc4ccccc4[nH]3)nc(N3CCOCC3)nc12 [Example 431, N-[(1H-benzimidazol-2-yl)methyl]-8-ethyl-2-(morpholin-4-yl)pyrazolo[1,5-a][1,3,5]triazin-4-amine]
228 | 9.09 | Cn1cc(-c2cnn3c(NCc4nc5cc(Cl)c(Cl)cc5[nH]4)nc(N4CCOCC4)nc23)cn1 [Example 419, N-[(5,6-dichloro-1H-benzimidazol-2-yl)methyl]-8-(1-methyl-1H-pyrazol-4-yl)-2-(morpholin-4-yl)pyrazolo[1,5-a][1,3,5]triazin-4-amine]
32.4 | 3.86 | CN1CCN(c2nc(NCc3nc4c(F)c(F)ccc4[nH]3)n3ncc(C4CC4(F)F)c3n2)CC1 (centres unmarked) [Example 429, N-[(4,5-difluoro-1H-benzimidazol-2-yl)methyl]-8-(2,2-difluorocyclopropyl)-2-(4-methylpiperazin-1-yl)pyrazolo[1,5-a][1,3,5]triazin-4-amine]
6.17 | 2.22 | Clc1cc2nc(CNc3nc(N4CCOCC4)nc4c(-c5cncs5)cnn34)[nH]c2cc1Cl [Example 443, N-[(5,6-dichloro-1H-benzimidazol-2-yl)methyl]-2-(morpholin-4-yl)-8-(1,3-thiazol-5-yl)pyrazolo[1,5-a][1,3,5]triazin-4-amine]
246 | 2.4 | Cn1cc(-c2cnn3c(NCc4nc5c(F)c(F)ccc5[nH]4)nc(N4CCOCC4)nc23)cn1 [Example 418, N-[(4,5-difluoro-1H-benzimidazol-2-yl)methyl]-8-(1-methyl-1H-pyrazol-4-yl)-2-(morpholin-4-yl)pyrazolo[1,5-a][1,3,5]triazin-4-amine]
113 | 9.95 | FC(F)(F)c1cnn2c(NCc3nnc(-c4ccccc4)[nH]3)nc(N3CCOCC3)nc12 [Example 427, 2-(morpholin-4-yl)-N-[(5-phenyl-4H-1,2,4-triazol-3-yl)methyl]-8-(trifluoromethyl)pyrazolo[1,5-a][1,3,5]triazin-4-amine]

From patent publication US20230117034A1, “PYRAZOLOTRIAZINES” (Bayer Aktiengesellschaft, priority 2019, published 2023)
